Assay results taken from ChEMBL document CHEMBL5550110, “An insight into the mechanistic role of (-)-Ampelopsin F from Vatica chinensis L. in inducing insulin secretion in pancreatic beta cells” (Bioorg Med Chem, 2024).
Activity calls are given as the source filed them. The rule behind the calls is not given here.

Columns and labels:
Beta-TC6 [1] = test: Cytotoxicity against mouse Beta-TC6 cells assessed as reduction in cell viability at 50 uM incubated for 24 hrs by MTT assay; type: toxicity, cell-based; conditions: beta-tc6, 24 h
Beta-TC6 [2] = test: Induction of insulin secretion in mouse Beta-TC6 cells assessed as fold increase at 50 uM incubated for 24 hrs by ELISA relative to control; type: functional
Beta-TC6 [3] = test: Induction of mitochondrial membrane hyperpolarization in mouse Beta-TC6 cells at 50 uM after 24 hrs by JC-1 staining based fluorescence microscopy analysis; type: cell-based
Beta-TC6 [4] = test: Induction of calcium level in mouse Beta-TC6 cells assessed as fold increase at 50 uM incubated for 30 mins by Fura-2 AM staining based fluorescence microscopy analysis relative to control; type: functional; conditions: 0.5 h
[5] = Induction of GLUT2 expression in mouse Beta-TC6 cells assessed as fold increase at 50 uM incubated for 24 hrs by Western blotting analysis relative to control; type: functional
[6] = Induction of glucokinase expression in mouse Beta-TC6 cells assessed as fold increase at 50 uM incubated for 24 hrs by Western blotting analysis relative to control; type: functional
[7] = target: Dipeptidyl peptidase 4 (Mus musculus) (UniProt P28843); test: Inhibition of DPP4 in mouse Beta-TC6 cells assessed as reduction in AMC production at 50 uM measured every min by fluorescence plate reader assay relative to control; type: cell-based
Chain of Dipeptidyl peptidase 4 (Mus musculus) (P28843 whole entry, looked up): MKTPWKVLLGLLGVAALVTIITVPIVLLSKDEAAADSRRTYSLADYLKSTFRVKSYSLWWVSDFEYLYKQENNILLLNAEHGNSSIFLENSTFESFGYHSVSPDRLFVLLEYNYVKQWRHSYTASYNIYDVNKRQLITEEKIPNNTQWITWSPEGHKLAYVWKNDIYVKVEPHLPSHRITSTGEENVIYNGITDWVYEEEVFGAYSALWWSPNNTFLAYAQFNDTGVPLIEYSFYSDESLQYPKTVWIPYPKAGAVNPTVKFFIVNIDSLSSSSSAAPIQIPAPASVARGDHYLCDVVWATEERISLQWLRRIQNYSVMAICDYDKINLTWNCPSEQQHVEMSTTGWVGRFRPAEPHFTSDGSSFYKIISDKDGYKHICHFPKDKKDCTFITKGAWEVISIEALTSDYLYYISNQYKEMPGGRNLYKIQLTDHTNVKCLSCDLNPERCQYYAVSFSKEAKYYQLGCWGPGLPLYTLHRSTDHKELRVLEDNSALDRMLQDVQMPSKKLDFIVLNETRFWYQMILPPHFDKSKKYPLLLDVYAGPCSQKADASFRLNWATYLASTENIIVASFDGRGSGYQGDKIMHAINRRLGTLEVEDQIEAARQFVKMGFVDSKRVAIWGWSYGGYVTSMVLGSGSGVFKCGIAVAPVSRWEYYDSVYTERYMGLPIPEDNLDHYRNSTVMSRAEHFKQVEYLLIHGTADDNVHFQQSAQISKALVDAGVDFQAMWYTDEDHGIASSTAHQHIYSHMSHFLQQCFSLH

[8] = target: Dipeptidyl peptidase 4 (Mus musculus) (UniProt P28843); test: Inhibition of DPP4 in mouse Beta-TC6 cells assessed as reduction in AMC production at 50 uM measured every min by fluorescence plate reader assay relative to positive control; type: cell-based
Beta-TC6 [9] = test: Induction of mitochondrial membrane hyperpolarization in mouse Beta-TC6 cells at 0.9 uM after 24 hrs by JC-1 staining based fluorescence microscopy analysis; type: cell-based
Beta-TC6 [10] = test: Induction of insulin secretion in mouse Beta-TC6 cells assessed as fold increase at 0.1 uM incubated for 24 hrs by ELISA relative to control; type: functional
Beta-TC6 [11] = test: Induction of mitochondrial membrane hyperpolarization in mouse Beta-TC6 cells at 0.1 uM after 24 hrs by JC-1 staining based fluorescence microscopy analysis; type: cell-based
Beta-TC6 [12] = test: Induction of calcium level in mouse Beta-TC6 cells assessed as fold increase at 0.1 uM incubated for 30 mins by Fura-2 AM staining based fluorescence microscopy analysis relative to control; type: functional; conditions: 0.5 h
[13] = Induction of glucokinase expression in mouse Beta-TC6 cells assessed as fold increase at 0.1 uM incubated for 24 hrs by Western blotting analysis relative to control; type: functional

SMILES: Oc1ccc([C@@H]2c3c(O)cc(O)cc3[C@H]3c4c(O)cc(O)cc4[C@H]2[C@@H]3c2ccc(O)cc2)cc1
- Activity (Beta-TC6 [1]): < 15%
- fold change (FC) (Beta-TC6 [2]): 3.5
- Activity (Beta-TC6 [3]): Active
- fold change (FC) (Beta-TC6 [4]): 2
- fold change (FC) [5]: 1.5
- fold change (FC) [6]: 2.5
- inhibition [7]: 63%
- inhibition [8]: 85%

SMILES: CC(C)[C@@H]1NC(=O)[C@H](C)OC(=O)[C@@H](C(C)C)NC(=O)[C@@H](C(C)C)OC(=O)[C@H](C(C)C)NC(=O)[C@H](C)OC(=O)[C@@H](C(C)C)NC(=O)[C@@H](C(C)C)OC(=O)[C@H](C(C)C)NC(=O)[C@H](C)OC(=O)[C@@H](C(C)C)NC(=O)[C@@H](C(C)C)OC1=O
- Activity (Beta-TC6 [9]): inactive

SMILES: COc1ccc(Cl)cc1C(=O)NCCc1ccc(S(=O)(=O)NC(=O)NC2CCCCC2)cc1 [GLYBURIDE]
- fold change (FC) (Beta-TC6 [10]): 4
- Activity (Beta-TC6 [11]): Active
- fold change (FC) (Beta-TC6 [12]): 2
- fold change (FC) [13]: 2
